Measurements as given in PubChem BioAssay AID1919001 (Molecular Pharmacology Branch, DTP, NCI, 2023).

Tested on: 699152-130-R-J1-PDC complex spheroid growth
Test: Anticancer human tumor 699152-130-R-J1-PDC patient-derived pancreatic carcinoma cell line growth inhibition [AhR]
Details: for IC50: curve of first compound; for viability, T/C: stronger effect = lower value
From the text: Multicellular complex tumor spheroid response to aryl hydrocarbon receptor antagonists in combination with a variety of drugs and investigational agents in selected tumor cell lines
The current study was undertaken to assess response to aryl hydrocarbon receptor antagonists in combination with standard-of-care drugs and investigational agents in solid tumor complex spheroid models. Complex spheroids include a stromal component modeled by human endothelial cells (HUVEC) and fibroblasts modeled by human mesenchymal stem cells (MSCs). The concentration ranges selected for each drug and investigational agent were based upon clinically achievable concentrations if the clinical Cmax of the agent was known.
Compounds. The drugs and investigational agents: BAY 2416964 (NSC825713), GNF351 (NSC835774), CH-223191 (NSC835775), CPI-455 (NSC825282), aza-TdCyd (NSC777586), decitabine (NSC127716), belinostat (NSC758774), entinostat (NSC756642), pevonedistat (NSC761192), tazemetostat (NSC777109), talazoparib (NSC765396), olaparib (NSC753686), selinexor (NSC780203), nedisertib (M3814, NSC802822), bortezomib (NSC756655), venetoclax (NSC766270), doxorubicin (NSC123127), elimusertib (BAY189344, NSC800525), ceralasertib (AZD6738, NSC777638), TAK-243 (NSC785004), alisertib (NSC759677), etoposide (NSC141540), topotecan (NSC609699), eribulin (NSC707389), gemcitabine (NSC613327), carboplatin (NSC241240), cisplatin (NSC119875), and SN-38 (NSC673596) were obtained from the National Cancer Institute (NCI) Developmental Therapeutics Program Chemical Repository (32). The FDA-approved anticancer drug set is available from the Developmental Therapeutics Program at https://dtp.cancer.gov/organization/dscb/obtaining/available plates.htm. […] The stock solutions were prepared in dimethyl sulfoxide (DMSO, Sigma-Aldrich, St. Louis, MO, cat. D2650), except for the platinum compounds which were prepared in saline (Quality Biological, Gaithersburg, MD, cat. 114-055-101), at 800-fold the tested concentration and stored at -70 degrees C prior to their use. All drugs and investigational agents were tested over a range starting from a high concentration at or near the clinical Cmax and decreasing in half-log increments. If the clinical Cmax for an agent had not been determined, the highest concentration tested was 10 microM (Table 1).
Cell Culture. All cells were maintained in an incubator at 37 degrees C and 5% CO2 with 95% humidity. The PDC lines were cultured according to standard operating procedures established by the NCI PDMR (https://pdmr.cancer.gov). Briefly, all PDCs were thawed and cultured in Matrigel-coated flasks prepared with a working solution of 1X Ham's F-12 nutrient mix, without supplementation (Invitrogen, Waltham, MA, cat. 11765054), 100 U/mL penicillin-streptomycin (Invitrogen, cat. 15140122), and 2.5% Matrigel (Corning Inc., Corning, NY, cat. 354248) for the first three passages. All PDCs were cultured in complete DMEM/F-12 media containing advanced DMEM/F-12 (Invitrogen, cat. 12634028), 4.9% defined fetal bovine serum, heat inactivated (HyClone Laboratories Inc., Logan, UT, cat. SH30070.03HI), 389 ng/mL hydrocortisone (Sigma-Aldrich, cat. H4001), 9.7 ng/mL human EGF recombinant protein (Invitrogen, cat. PHG0313), 23.4 microg/mL adenine (Sigma-Aldrich, cat. A2786), 97.3 U/mL penicillin-streptomycin (Invitrogen, cat. 15140122), 1.9 mM L-glutamine (Invitrogen, cat. 25030081), and 9.7 microM Y-27632 dihydrochloride (Tocris Bioscience, Bristol, United Kingdom, cat. 1254). The PDCs were cultured in complete DMEM/F12 media without 10 microM Y-27632 dihydrochloride for at least two passages prior to the screen. The established cell lines NCI-H1341 and […] were cultured in DMEM/F-12, HEPES (Invitrogen, cat. 11330032), 5% defined fetal bovine serum (HyClone Laboratories Inc., cat. SH30070.03), ITS premix universal culture supplement [insulin (5 microg/mL), transferrin (5 microg/mL), and selenious acid (5 ng/mL)] […]

[1] = second compound 0.1 µM, first compound 0.0316 µM
[2] = second compound 0.1 µM, first compound 0.1 µM
[3] = second compound 0.1 µM, first compound 0.316 µM
[4] = second compound 0.1 µM, first compound 1 µM
[5] = second compound 0.1 µM, first compound 3.16 µM
[6] = second compound 0.1 µM, first compound 10 µM
[7] = second compound 0.316 µM, first compound 0.0316 µM
[8] = second compound 0.316 µM, first compound 0.1 µM
[9] = second compound 0.316 µM, first compound 0.316 µM
[10] = second compound 0.316 µM, first compound 1 µM
[11] = second compound 0.316 µM, first compound 3.16 µM
[12] = second compound 0.316 µM, first compound 10 µM
[13] = second compound 1 µM, first compound 0.0316 µM
[14] = second compound 1 µM, first compound 0.1 µM
[15] = second compound 1 µM, first compound 0.316 µM
[16] = second compound 1 µM, first compound 1 µM
[17] = second compound 1 µM, first compound 3.16 µM
[18] = second compound 1 µM, first compound 10 µM
[19] = second compound 3.16 µM, first compound 0.0316 µM
[20] = second compound 3.16 µM, first compound 0.1 µM
[21] = second compound 3.16 µM, first compound 0.316 µM
[22] = second compound 3.16 µM, first compound 1 µM
[23] = second compound 3.16 µM, first compound 3.16 µM
[24] = second compound 3.16 µM, first compound 10 µM
[25] = second compound 10 µM, first compound 0.0316 µM
[26] = second compound 10 µM, first compound 0.1 µM
[27] = second compound 10 µM, first compound 0.316 µM
[28] = second compound 10 µM, first compound 1 µM
[29] = second compound 10 µM, first compound 3.16 µM
[30] = second compound 10 µM, first compound 10 µM
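Further: compound exposure lasted 7 days after spheroids had grown for 3 days.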

CC(C)CC(NC(=O)C(Cc1ccccc1)NC(=O)c1cnccn1)B(O)O (stereo not given) + CC(CO)NC(=O)c1cc(-c2ccc(Cl)cc2)nn(-c2cnn(C)c2)c1=O
IC50 (second compound 0.1 µM): 0.00584 µM
IC50 (second compound 0.316 µM): 0.00584 µM
IC50 (second compound 1 µM): 0.00539 µM
IC50 (second compound 3.16 µM): 0.00546 µM
IC50 (second compound 10 µM): 0.00513 µM
viability, T/C (second compound 0.1 µM, first compound 0.000949 µM): 91.3%
viability, T/C (second compound 0.1 µM, first compound 0.003 µM): 102%
viability, T/C (second compound 0.1 µM, first compound 0.00949 µM): 16%
viability, T/C (second compound 0.1 µM, first compound 0.03 µM): 1.65%
viability, T/C (second compound 0.1 µM, first compound 0.0949 µM): 10.5%
viability, T/C (second compound 0.1 µM, first compound 0.3 µM): 0.88%
viability, T/C (second compound 0.316 µM, first compound 0.000949 µM): 92.5%
viability, T/C (second compound 0.316 µM, first compound 0.003 µM): 115%
viability, T/C (second compound 0.316 µM, first compound 0.00949 µM): 10.9%
viability, T/C (second compound 0.316 µM, first compound 0.03 µM): 0.58%
viability, T/C (second compound 0.316 µM, first compound 0.0949 µM): 0.4%
viability, T/C (second compound 0.316 µM, first compound 0.3 µM): 0.53%
viability, T/C (second compound 1 µM, first compound 0.000949 µM): 100%
viability, T/C (second compound 1 µM, first compound 0.003 µM): 86.1%
viability, T/C (second compound 1 µM, first compound 0.00949 µM): 15.2%
viability, T/C (second compound 1 µM, first compound 0.03 µM): 3.08%
viability, T/C (second compound 1 µM, first compound 0.0949 µM): 0.35%
viability, T/C (second compound 1 µM, first compound 0.3 µM): 0.5%
viability, T/C (second compound 3.16 µM, first compound 0.000949 µM): 80.9%
viability, T/C (second compound 3.16 µM, first compound 0.003 µM): 92.5%
viability, T/C (second compound 3.16 µM, first compound 0.00949 µM): 16.2%
viability, T/C (second compound 3.16 µM, first compound 0.03 µM): 1.89%
viability, T/C (second compound 3.16 µM, first compound 0.0949 µM): 1.77%
viability, T/C (second compound 3.16 µM, first compound 0.3 µM): 5.12%
viability, T/C (second compound 10 µM, first compound 0.000949 µM): 74.7%
viability, T/C (second compound 10 µM, first compound 0.003 µM): 90.8%
viability, T/C (second compound 10 µM, first compound 0.00949 µM): 12.6%
viability, T/C (second compound 10 µM, first compound 0.03 µM): 1.86%
viability, T/C (second compound 10 µM, first compound 0.0949 µM): 0.41%
viability, T/C (second compound 10 µM, first compound 0.3 µM): 0.56%

Nc1ccccc1NC(=O)c1ccc(CNC(=O)OCc2cccnc2)cc1 + CC(CO)NC(=O)c1cc(-c2ccc(Cl)cc2)nn(-c2cnn(C)c2)c1=O
IC50 (second compound 0.1 µM): 8.23 µM
IC50 (second compound 0.316 µM): 6.81 µM
IC50 (second compound 1 µM): 7.78 µM
IC50 (second compound 3.16 µM): 7.59 µM
IC50 (second compound 10 µM): 6.07 µM
viability, T/C [1]: 98.3%
viability, T/C [2]: 99.1%
viability, T/C [3]: 99.3%
viability, T/C [4]: 99.2%
viability, T/C [5]: 72.6%
viability, T/C [6]: 45.4%
viability, T/C [7]: 97.3%
viability, T/C [8]: 110%
viability, T/C [9]: 107%
viability, T/C [10]: 91.3%
viability, T/C [11]: 78%
viability, T/C [12]: 36.5%
viability, T/C [13]: 97.7%
viability, T/C [14]: 91.4%
viability, T/C [15]: 98.4%
viability, T/C [16]: 92.9%
viability, T/C [17]: 71%
viability, T/C [18]: 44.1%
viability, T/C [19]: 90.2%
viability, T/C [20]: 84.7%
viability, T/C [21]: 97.2%
viability, T/C [22]: 82.2%
viability, T/C [23]: 74.1%
viability, T/C [24]: 42.4%
viability, T/C [25]: 96%
viability, T/C [26]: 88%
viability, T/C [27]: 86.1%
viability, T/C [28]: 83.7%
viability, T/C [29]: 70.8%
viability, T/C [30]: 34.4%

O=C(C=Cc1cccc(S(=O)(=O)Nc2ccccc2)c1)NO + CC(CO)NC(=O)c1cc(-c2ccc(Cl)cc2)nn(-c2cnn(C)c2)c1=O
IC50 (second compound 0.1 µM): > 10 µM
IC50 (second compound 0.316 µM): > 10 µM
IC50 (second compound 1 µM): > 10 µM
IC50 (second compound 3.16 µM): > 10 µM
IC50 (second compound 10 µM): > 10 µM
viability, T/C [1]: 102%
viability, T/C [2]: 102%
viability, T/C [3]: 111%
viability, T/C [4]: 112%
viability, T/C [5]: 96.8%
viability, T/C [6]: 79.1%
viability, T/C [7]: 92.8%
viability, T/C [8]: 107%
viability, T/C [9]: 111%
viability, T/C [10]: 106%
viability, T/C [11]: 102%
viability, T/C [12]: 76.2%
viability, T/C [13]: 90.2%
viability, T/C [14]: 96.8%
viability, T/C [15]: 104%
viability, T/C [16]: 101%
viability, T/C [17]: 94.3%
viability, T/C [18]: 82.6%
viability, T/C [19]: 84.2%
viability, T/C [20]: 83.8%
viability, T/C [21]: 93.9%
viability, T/C [22]: 95.4%
viability, T/C [23]: 84%
viability, T/C [24]: 83.9%
viability, T/C [25]: 85%
viability, T/C [26]: 95.4%
viability, T/C [27]: 81.7%
viability, T/C [28]: 89.4%
viability, T/C [29]: 90.5%
viability, T/C [30]: 79.4%
